Measurements from ChEMBL document CHEMBL4507320, “Data for DCP probe NVS-MALT1” (2021).
The source made the active and inactive calls. The rule behind the calls is not given here.

Assays:
[1] = target: T1, Mucosa-associated lymphoid tissue lymphoma translocation protein 1 (Homo sapiens, UniProt Q9UDY8); test: Jurkat IL-2 (IL2-RGA PMA + anti-CD28); format: cell-based
T1 sequence (Q9UDY8 whole entry): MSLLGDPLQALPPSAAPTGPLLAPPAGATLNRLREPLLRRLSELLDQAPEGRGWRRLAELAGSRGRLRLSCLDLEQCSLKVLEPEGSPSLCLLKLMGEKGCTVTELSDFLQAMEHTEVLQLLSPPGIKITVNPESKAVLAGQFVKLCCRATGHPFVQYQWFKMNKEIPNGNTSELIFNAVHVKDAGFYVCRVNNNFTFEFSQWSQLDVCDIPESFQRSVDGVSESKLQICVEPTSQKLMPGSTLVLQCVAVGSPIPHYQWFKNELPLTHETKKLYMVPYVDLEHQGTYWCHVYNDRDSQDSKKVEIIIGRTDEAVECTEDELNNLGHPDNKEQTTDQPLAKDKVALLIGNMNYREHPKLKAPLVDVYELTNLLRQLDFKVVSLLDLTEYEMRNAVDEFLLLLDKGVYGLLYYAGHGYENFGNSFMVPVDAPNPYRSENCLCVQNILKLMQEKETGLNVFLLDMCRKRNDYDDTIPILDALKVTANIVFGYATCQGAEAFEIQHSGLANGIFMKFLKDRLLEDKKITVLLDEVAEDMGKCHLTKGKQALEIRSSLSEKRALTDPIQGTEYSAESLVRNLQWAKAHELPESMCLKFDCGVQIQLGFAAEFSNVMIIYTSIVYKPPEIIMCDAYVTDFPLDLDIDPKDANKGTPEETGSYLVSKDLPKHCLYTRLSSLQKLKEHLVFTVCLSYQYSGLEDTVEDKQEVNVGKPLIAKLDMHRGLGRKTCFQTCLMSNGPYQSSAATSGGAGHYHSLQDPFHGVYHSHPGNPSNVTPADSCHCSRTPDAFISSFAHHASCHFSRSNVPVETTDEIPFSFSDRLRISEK

[2] = target: AP2-associated protein kinase 1 (Homo sapiens) (UniProt Q2M2I8); details: Compound concentration 1000.0 nM
[3] = tested on: Tyrosine-protein kinase ABL1 (Homo sapiens), P00519 [F317I]; details: Compound concentration 1000.0 nM
[4] = tested on: Tyrosine-protein kinase ABL1 (Homo sapiens), P00519 [Q252H]; details: Compound concentration 1000.0 nM
[5] = target: NUAK family SNF1-like kinase 1 (Homo sapiens) (UniProt O60285); details: Compound concentration 1000.0 nM
[6] = target: Casein kinase I isoform alpha-like (Homo sapiens) (UniProt Q8N752); details: Compound concentration 1000.0 nM
Chain of Casein kinase I isoform alpha-like (Homo sapiens) (Q8N752 whole entry, canonical isoform): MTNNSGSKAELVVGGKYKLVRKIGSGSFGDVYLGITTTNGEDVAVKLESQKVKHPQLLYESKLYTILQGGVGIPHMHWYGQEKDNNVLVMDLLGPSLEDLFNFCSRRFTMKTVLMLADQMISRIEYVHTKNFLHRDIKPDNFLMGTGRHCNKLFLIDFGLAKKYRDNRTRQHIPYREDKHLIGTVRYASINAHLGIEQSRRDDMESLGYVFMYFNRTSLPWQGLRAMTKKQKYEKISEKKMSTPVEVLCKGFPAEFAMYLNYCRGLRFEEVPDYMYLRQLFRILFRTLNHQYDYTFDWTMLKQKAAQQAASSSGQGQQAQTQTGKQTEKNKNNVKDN

[7] = target: Serine/threonine-protein kinase DCLK2 (Homo sapiens) (UniProt Q8N568); details: Compound concentration 1000.0 nM
[8] = tested on: Epidermal growth factor receptor (Homo sapiens), P00533 [UNDEFINED MUTATION]; details: Compound concentration 1000.0 nM
[9] = tested on: Receptor-type tyrosine-protein kinase FLT3 (Homo sapiens), P36888 [R834Q]; details: Compound concentration 1000.0 nM
[10] = target: Beta-adrenergic receptor kinase 1 (Homo sapiens) (UniProt P25098); details: Compound concentration 1000.0 nM
Chain of Beta-adrenergic receptor kinase 1 (Homo sapiens) (P25098 whole entry): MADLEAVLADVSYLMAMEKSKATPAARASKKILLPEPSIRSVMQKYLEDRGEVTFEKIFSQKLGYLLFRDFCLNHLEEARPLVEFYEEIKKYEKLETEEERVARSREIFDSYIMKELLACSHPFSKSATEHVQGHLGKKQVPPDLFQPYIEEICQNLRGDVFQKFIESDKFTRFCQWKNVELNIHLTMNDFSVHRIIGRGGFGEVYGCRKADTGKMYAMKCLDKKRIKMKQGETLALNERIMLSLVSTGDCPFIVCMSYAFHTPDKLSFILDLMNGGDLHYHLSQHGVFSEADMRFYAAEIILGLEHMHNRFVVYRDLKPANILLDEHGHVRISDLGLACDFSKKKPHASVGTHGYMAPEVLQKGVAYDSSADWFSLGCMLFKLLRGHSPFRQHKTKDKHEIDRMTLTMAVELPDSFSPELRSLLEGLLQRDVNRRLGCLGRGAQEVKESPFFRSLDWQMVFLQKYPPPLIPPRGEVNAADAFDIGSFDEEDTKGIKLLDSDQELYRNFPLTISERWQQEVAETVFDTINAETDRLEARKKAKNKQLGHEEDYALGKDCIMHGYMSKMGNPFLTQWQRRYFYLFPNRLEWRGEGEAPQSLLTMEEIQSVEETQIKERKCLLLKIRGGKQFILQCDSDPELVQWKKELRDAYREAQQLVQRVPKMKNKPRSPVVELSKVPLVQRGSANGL

[11] = target: Inhibitor of nuclear factor kappa-B kinase subunit beta (Homo sapiens) (UniProt O14920); details: Compound concentration 1000.0 nM
[12] = target: Mitogen-activated protein kinase 8 (Homo sapiens) (UniProt P45983); details: Compound concentration 1000.0 nM
[13] = tested on: Mast/stem cell growth factor receptor Kit (Homo sapiens), P10721 [L576P]; details: Compound concentration 1000.0 nM
[14] = target: Mitogen-activated protein kinase kinase kinase 2 (Homo sapiens) (UniProt Q9Y2U5); details: Compound concentration 1000.0 nM
Chain of Mitogen-activated protein kinase kinase kinase 2 (Homo sapiens) (Q9Y2U5 whole entry): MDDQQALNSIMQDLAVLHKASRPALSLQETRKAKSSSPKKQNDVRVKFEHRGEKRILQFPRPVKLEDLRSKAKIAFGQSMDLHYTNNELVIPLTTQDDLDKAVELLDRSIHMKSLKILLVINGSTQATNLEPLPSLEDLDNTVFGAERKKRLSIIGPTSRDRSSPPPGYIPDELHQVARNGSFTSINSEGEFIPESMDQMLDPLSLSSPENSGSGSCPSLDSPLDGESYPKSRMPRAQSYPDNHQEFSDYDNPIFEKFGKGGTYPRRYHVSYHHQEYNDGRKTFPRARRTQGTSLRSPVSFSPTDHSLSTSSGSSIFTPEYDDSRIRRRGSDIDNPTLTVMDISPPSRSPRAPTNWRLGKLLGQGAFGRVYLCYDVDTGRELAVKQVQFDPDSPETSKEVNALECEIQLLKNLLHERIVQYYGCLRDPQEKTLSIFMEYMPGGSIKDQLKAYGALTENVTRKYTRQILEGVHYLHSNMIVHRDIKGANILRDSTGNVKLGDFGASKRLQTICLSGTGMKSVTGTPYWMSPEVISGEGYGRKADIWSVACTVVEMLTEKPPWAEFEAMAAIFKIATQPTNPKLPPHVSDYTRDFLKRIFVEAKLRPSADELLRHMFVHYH

[15] = target: Dual specificity mitogen-activated protein kinase kinase 1 (Homo sapiens) (UniProt Q02750); details: Compound concentration 1000.0 nM
Chain of Dual specificity mitogen-activated protein kinase kinase 1 (Homo sapiens) (Q02750 whole entry): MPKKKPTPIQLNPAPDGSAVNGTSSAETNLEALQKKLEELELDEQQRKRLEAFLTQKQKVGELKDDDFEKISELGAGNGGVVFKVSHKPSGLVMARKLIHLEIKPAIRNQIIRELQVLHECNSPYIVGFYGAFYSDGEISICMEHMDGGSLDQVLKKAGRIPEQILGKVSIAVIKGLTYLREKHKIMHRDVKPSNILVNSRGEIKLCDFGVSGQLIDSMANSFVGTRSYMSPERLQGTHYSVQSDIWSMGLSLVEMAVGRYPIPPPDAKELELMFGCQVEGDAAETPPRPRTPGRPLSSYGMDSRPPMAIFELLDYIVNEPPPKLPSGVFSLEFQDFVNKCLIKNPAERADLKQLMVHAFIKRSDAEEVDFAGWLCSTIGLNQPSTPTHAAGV

[16] = target: Macrophage-stimulating protein receptor (Homo sapiens) (UniProt Q04912); details: Compound concentration 1000.0 nM
[17] = target: Myosin light chain kinase 2, skeletal/cardiac muscle (Homo sapiens) (UniProt Q9H1R3); details: Compound concentration 1000.0 nM
[18] = target: Serine/threonine-protein kinase PAK 5 (Homo sapiens) (UniProt Q9P286); details: Compound concentration 1000.0 nM
[19] = target: Phosphatidylinositol 4-phosphate 3-kinase C2 domain-containing subunit beta (Homo sapiens) (UniProt O00750); details: Compound concentration 1000.0 nM
[20] = tested on: Phosphatidylinositol 4,5-bisphosphate 3-kinase catalytic subunit alpha isoform (Homo sapiens), P42336 [E545K]; details: Compound concentration 1000.0 nM
[21] = target: Protein-tyrosine kinase 2-beta (Homo sapiens) (UniProt Q14289); details: Compound concentration 1000.0 nM
[22] = target: Ribosomal protein S6 kinase alpha-4 (Homo sapiens) (UniProt O75676); details: Compound concentration 1000.0 nM
Chain of Ribosomal protein S6 kinase alpha-4 (Homo sapiens) (O75676 whole entry, looked up): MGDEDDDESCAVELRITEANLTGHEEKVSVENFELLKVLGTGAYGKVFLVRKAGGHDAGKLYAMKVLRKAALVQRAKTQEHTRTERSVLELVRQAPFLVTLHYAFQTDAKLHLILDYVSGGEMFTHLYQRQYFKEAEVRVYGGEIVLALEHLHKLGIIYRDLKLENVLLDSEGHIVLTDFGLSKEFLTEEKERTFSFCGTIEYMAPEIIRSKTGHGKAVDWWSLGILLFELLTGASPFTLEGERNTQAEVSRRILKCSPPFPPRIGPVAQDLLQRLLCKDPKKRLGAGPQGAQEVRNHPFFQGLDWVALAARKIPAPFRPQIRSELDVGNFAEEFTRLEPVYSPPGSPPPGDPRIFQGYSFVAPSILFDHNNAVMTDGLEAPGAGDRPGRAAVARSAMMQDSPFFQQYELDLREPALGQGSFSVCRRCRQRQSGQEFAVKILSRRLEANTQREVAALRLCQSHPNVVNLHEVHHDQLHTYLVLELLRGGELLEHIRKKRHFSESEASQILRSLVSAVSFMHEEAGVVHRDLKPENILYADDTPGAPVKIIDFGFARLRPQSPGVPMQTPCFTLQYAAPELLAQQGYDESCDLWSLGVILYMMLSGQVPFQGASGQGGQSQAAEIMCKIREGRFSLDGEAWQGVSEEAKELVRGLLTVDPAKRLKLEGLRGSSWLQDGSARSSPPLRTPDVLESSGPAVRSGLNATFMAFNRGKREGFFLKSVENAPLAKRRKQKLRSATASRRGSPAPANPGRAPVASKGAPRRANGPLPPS

[23] = target: Serine/threonine-protein kinase SBK1 (Homo sapiens) (UniProt Q52WX2); details: Compound concentration 1000.0 nM
[24] = target: Serine/threonine-protein kinase SIK1 (Homo sapiens) (UniProt P57059); details: Compound concentration 1000.0 nM
[25] = target: Serine/threonine-protein kinase SIK2 (Homo sapiens) (UniProt Q9H0K1); details: Compound concentration 1000.0 nM
[26] = target: NUAK family SNF1-like kinase 2 (Homo sapiens) (UniProt Q9H093); details: Compound concentration 1000.0 nM
Chain of NUAK family SNF1-like kinase 2 (Homo sapiens) (Q9H093 whole entry): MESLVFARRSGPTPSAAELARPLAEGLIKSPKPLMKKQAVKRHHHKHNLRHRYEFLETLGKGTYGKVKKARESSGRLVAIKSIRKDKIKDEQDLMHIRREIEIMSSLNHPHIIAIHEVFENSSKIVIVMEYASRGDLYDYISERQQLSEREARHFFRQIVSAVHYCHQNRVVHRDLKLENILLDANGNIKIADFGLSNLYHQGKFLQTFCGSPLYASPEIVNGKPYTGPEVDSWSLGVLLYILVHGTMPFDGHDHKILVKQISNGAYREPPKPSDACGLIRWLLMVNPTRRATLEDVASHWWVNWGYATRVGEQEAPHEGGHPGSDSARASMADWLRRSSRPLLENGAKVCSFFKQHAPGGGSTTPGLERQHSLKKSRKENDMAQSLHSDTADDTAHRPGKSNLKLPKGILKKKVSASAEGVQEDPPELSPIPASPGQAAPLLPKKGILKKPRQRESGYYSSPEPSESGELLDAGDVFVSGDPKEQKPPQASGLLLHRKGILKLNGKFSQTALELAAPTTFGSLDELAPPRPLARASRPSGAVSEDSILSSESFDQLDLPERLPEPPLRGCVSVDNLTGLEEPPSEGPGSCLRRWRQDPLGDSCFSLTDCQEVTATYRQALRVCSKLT

[27] = target: Serine/threonine-protein kinase TAO1 (Homo sapiens) (UniProt Q7L7X3); details: Compound concentration 1000.0 nM
Chain of Serine/threonine-protein kinase TAO1 (Homo sapiens) (Q7L7X3 whole entry): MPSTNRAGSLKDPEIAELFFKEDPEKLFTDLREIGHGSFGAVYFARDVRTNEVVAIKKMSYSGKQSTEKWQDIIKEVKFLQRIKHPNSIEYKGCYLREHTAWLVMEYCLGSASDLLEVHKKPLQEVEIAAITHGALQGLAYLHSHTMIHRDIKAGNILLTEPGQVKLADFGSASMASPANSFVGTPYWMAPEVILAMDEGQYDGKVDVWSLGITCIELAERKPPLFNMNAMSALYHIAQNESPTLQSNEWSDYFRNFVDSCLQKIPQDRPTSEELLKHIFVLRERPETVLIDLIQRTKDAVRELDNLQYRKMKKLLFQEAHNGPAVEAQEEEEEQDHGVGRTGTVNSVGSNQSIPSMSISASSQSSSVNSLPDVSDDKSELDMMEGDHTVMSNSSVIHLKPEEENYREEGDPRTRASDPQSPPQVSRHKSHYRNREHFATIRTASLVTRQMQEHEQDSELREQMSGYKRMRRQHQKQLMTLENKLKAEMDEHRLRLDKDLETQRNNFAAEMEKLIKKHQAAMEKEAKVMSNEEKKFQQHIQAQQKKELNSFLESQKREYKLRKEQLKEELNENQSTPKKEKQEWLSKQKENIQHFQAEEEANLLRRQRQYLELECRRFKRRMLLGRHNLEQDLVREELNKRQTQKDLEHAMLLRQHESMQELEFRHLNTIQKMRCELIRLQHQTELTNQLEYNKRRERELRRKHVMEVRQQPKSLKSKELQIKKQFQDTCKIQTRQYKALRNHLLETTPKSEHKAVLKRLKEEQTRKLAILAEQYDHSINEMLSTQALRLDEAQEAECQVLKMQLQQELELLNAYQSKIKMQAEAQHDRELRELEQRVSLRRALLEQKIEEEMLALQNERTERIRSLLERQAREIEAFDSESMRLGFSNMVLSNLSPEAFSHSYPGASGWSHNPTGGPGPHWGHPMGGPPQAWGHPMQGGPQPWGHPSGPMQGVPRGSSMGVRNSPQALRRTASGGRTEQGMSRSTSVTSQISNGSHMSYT

[28] = target: Serine/threonine-protein kinase tousled-like 2 (Homo sapiens) (UniProt Q86UE8); details: Compound concentration 1000.0 nM
[29] = target: Serine/threonine-protein kinase ULK3 (Homo sapiens) (UniProt Q6PHR2); details: Compound concentration 1000.0 nM
[30] = target: Serine/threonine-protein kinase 32B (Homo sapiens) (UniProt Q9NY57); details: Compound concentration 1000.0 nM
Chain of Serine/threonine-protein kinase 32B (Homo sapiens) (Q9NY57 whole entry): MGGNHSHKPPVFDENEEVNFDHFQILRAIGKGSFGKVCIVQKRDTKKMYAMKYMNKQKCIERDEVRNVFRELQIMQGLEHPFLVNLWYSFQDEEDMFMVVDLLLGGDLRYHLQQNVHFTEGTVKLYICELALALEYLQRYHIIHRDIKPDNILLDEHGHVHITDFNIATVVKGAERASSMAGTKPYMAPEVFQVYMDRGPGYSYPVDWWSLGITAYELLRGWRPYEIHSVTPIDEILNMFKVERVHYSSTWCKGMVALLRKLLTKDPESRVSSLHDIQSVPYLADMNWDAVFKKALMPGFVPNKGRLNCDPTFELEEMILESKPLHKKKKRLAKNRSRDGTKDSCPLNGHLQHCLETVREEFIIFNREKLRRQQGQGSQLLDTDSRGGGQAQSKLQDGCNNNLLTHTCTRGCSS

[31] = target: 5-hydroxytryptamine receptor 2A (Homo sapiens) (UniProt P28223); details: Compound concentration 10.0 uM
[32] = target: GABA-A receptor; anion channel (Rattus norvegicus) (UniProt O09028+P15431+P18506+P18508+P19969+P20236+P23574+P23576+P28471+P28473+P30191+P62813+P63079+P63138+Q91ZM7+Q9ES14); details: Compound concentration 10.0 uM

| Compound | IC50 [1] | residual activity [2] [%] | residual activity [3] [%] | residual activity [4] [%] | residual activity [5] [%] | residual activity [6] [%] | residual activity [7] [%] | residual activity [8] [%] | residual activity [9] [%] | residual activity [10] [%] | residual activity [11] [%] | residual activity [12] [%] | residual activity [13] [%] | residual activity [14] [%] | residual activity [15] [%] | residual activity [16] [%] | residual activity [17] [%] | residual activity [18] [%] | residual activity [19] [%] | residual activity [20] [%] | also measured |
| --- | --- | --- | --- | --- | --- | --- | --- | --- | --- | --- | --- | --- | --- | --- | --- | --- | --- | --- | --- | --- | --- |
| CO[C@@H](C)c1c(Nc2ccc([C@H](N(C)C(=O)C3CCS(=O)(=O)CC3)C(F)(F)F)cc2)cnc2cc(Cl)nn12 [NVS-MALT1] | 3.4 nM (active) | 84 | 100 | 100 | 98 | 65 | 90 | 100 | 100 | 84 | 100 | 86 | 98 | 100 | 100 | 100 | 83 | 100 | 97 | 48 | residual activity [21]: 83%; residual activity [22]: 100%; residual activity [23]: 100%; residual activity [24]: 87%; residual activity [25]: 87%; residual activity [26]: 100%; residual activity [27]: 100%; residual activity [28]: 92%; residual activity [29]: 94%; residual activity [30]: 89%; inhibition [31]: 2.45%; inhibition [32]: 21.3% |
| CO[C@@H](C)c1c(Nc2ccc([C@@H](N(C)C(=O)C3CCS(=O)(=O)CC3)C(F)(F)F)cc2)cnc2cc(Cl)nn12 [NVS-MALT1-C] | 1900 nM (active) | 96 | 100 | 100 | 99 | 84 | 95 | 93 | 100 | 92 | 100 | 69 | 100 | 100 | 100 | 100 | 88 | 100 | 89 | 62 | residual activity [21]: 100%; residual activity [22]: 100%; residual activity [23]: 100%; residual activity [24]: 85%; residual activity [25]: 92%; residual activity [26]: 100%; residual activity [27]: 100%; residual activity [28]: 100%; residual activity [29]: 97%; residual activity [30]: 95%; inhibition [31]: 4.93%; inhibition [32]: 20.8% |
